Measurements taken from publication PMC5464768, “ER retention is imposed by COPII protein sorting and attenuated by 4-phenylbutyrate” (eLife, 2017).
Like-named read-outs stand apart in the source and are kept apart here.

Tests used:
human Sec24a = target: T1, human Sec24a (Homo sapiens, UniProt O95486); assay: Fluorescence polarization competition binding assay (displacement of 5-Fam-[…]); settings: fluorescence polarization at 22°C; 5 µM probe, 22 µM Sec24a; ± standard error of fit; read-out: IC50, displacement of fluorescent probe 5-Fam-[…] from Sec24a
T1 construct: His6 (TEV-cleavable) (N, cleaved yes); made in house; host or cells: High Five insect cells (baculovirus)
T1 sequence (O95486 341-1093): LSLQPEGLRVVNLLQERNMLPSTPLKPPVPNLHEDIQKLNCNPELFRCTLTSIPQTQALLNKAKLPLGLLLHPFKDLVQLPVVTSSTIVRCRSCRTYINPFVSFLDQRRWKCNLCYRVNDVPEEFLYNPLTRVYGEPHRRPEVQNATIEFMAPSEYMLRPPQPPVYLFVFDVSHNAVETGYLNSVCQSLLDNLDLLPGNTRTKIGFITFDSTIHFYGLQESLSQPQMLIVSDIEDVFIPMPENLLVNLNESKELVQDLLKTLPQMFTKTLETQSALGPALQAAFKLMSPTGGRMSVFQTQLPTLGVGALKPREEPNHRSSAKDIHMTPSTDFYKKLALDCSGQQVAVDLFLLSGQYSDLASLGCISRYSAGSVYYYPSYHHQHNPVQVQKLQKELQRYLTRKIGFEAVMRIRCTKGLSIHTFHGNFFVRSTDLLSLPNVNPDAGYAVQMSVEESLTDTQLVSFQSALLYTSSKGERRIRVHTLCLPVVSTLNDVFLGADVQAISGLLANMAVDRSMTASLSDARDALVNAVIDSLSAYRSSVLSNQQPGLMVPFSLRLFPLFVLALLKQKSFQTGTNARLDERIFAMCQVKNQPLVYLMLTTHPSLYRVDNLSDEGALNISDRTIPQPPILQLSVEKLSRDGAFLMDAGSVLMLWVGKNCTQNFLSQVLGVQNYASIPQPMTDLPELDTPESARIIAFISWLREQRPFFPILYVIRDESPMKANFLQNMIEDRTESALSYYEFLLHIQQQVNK

[1] = test system: CHO cells expressing G544V-mutant LDL receptor; assay: Restoration of trafficking of mutant LDL receptor in cells (immunoblot for 160 kDa mature glycosylated form); format: cell-based; settings: for EC50: ± standard error of fit
Experimental: (§1) T-Rex-CHO-K1 cloned cell lines expressing wild-type and mutant LDL receptor were cultured as described ([Sørensen et al., 2006]; [Tveten et al., 2007]), and according to the manufacturer’s protocols (Thermo Fisher Scientific; CHO cell Lot No. 1610593). The expression in CHO cells of G544V-mutant or wild-type LDL receptor protein was induced with 1 µg/mL tetracycline for 24 hr prior to experiments with 4-PBA or 4-PBA analogs ([Tveten et al., 2007]). To compare pharmacological potency of 4-PBA analogs, cells were incubated with the compounds for 2 hr at 37°C in 12-well 22 mm plates (Corning Costar #3513). For experiments concerning the extracellular secretion of GRP94 (Figure 5), the incubations with 4-PBA were extended to 24 hr. Cells were broken in lysis buffer (1% (v/v) Triton X-100, 150 mM NaCl, 10 mM EDTA, 50 mM Tris-HCl pH 7.5) and cleared by centrifugation (15,000 g for 15 min). Cellular protein concentration was measured using ‘Protein Assay Kit II’ (Bio-Rad) with bovine serum albumin as standard. Lysates were added to Laemmli sample buffer (New England BioLabs) containing 130 mM dithiothreitol and heated for 15 min at 55°C. Cell medium (containing secreted proteins) was added to Laemmli sample buffer containing 5% β-mercaptoethanol and boiled for 5 min. Samples were run on 4–15% Tris/HCl Criterion gels (Bio-Rad) followed by immunoblotting.
Proteins were electrotransferred from SDS-PAGE gels onto Immun-Blot low fluorescence PVDF membrane (Bio-Rad) and blocked using TBST (5% BioRad Blocker in 25 mM Tris-HCl pH 7.4, 150 mM NaCl, 0.05% (v/v) Tween 20). Membranes were incubated at 4°C overnight with primary antibodies in TBST followed by incubation with horseradish peroxidase-conjugated secondary antibodies. Chemiluminescence signals were generated by incubation with ECL Prime Western Blotting detection reagent (GE Healthcare #RPN2236). […] Chemiluminescence signals were detected using a ChemiDoc MP Imaging System and acquired with Image Lab 5.0 software (Bio-Rad). Quantification of protein band intensities was performed using Image Gauge software Version 4.1 (Fujifilm), including background correction of the raw image data.
Chemiluminescence signals from western blots for the glycosylated (160 kDa) form of G544V-mutant LDL receptor were quantified as a percentage of total LDL receptor protein (glycosylated + unglycosylated bands). Data at high concentrations of 4-PBA analogs, which show inhibition of LDL receptor trafficking, were omitted. Data from individual experiments were normalized (to obtain maximal response = 100%), so that data from replicate experiments (n = 4–5) could be averaged. Logistic fitting to the dose-response data was carried out with program Ultrafit (Elsevier Biosoft).

[2] = test system: CHO cells (stressed, expressing G544V-mutant LDL receptor, and unstressed wild-type); assay: Extracellular secretion of GRP94 from CHO cells; format: cell-based; settings: 24 hr at 37°C
Experimental: as §1

B site of Sec24a = target: T2, B site of Sec24a (Homo sapiens, UniProt O95486); assay: X-ray crystallography of ligand-soaked Sec23a/Sec24a•Sec22b crystals; format: binding; settings: crystals soaked with 4-PBA at 1, 15 and 50 mM or with 5 mM ΦC signal peptide
T2 construct: His6 (TEV-cleavable) (N, cleaved yes); made in house; host or cells: High Five insect cells (Sec23a/Sec24a); E. coli (Sec22b)
Experimental: The Sec23a/Sec24a•Sec22b complex was crystallized as described previously ([Mancias and Goldberg, 2007]) from a solution comprising 10% (w/v) PEG 4000, 500 mM Na acetate and 50 mM Tris-HCl pH 7.9. Since acetate ions compete with ligand binding at the B site, crystals were transferred into a soaking buffer of 10% (w/v) PEG 4000, 600 mM NaCl, 50 mM Tris-HCl buffer, pH 7.9. (Two acetate ions are observed bound to B-site arginine residues in electron density maps calculated from Sec23a/Sec24a•Sec22b crystallographic data, PDB 2NUT). To this was added 4-PBA (0–50 mM) or 5 mM ΦC signal peptide, and ligand soaking proceeded for five hours at 22°C. Crystals were then transferred to an equivalent ligand-containing buffer with additional 24% ethylene glycol cryo-protectant, and were flash frozen in liquid nitrogen. Crystals treated in this manner diffracted synchrotron X-rays to 2.5–2.8 Å resolution.
X-ray diffraction data were collected at 0.979 Å wavelength on beamline ID-24C or ID-24E of the Advanced Photon Source, Argonne National Laboratory. Data were processed with the program HKL2000 ([Otwinowski and Minor, 1997]; Tables 1 and 2). Structure refinement was carried out using Phenix ([Adams et al., 2010]), initially by rigid-body improvement, followed by positional refinement, based on the published coordinates of Sec23a/Sec24a•Sec22b (PDB 2NUT; [Mancias and Goldberg, 2007]). […]

[3] = target: T3, COPII coat (Sec23a/24d) packaging of p24 proteins and ERGIC-53 (Homo sapiens, UniProt O94855); assay: In vitro COPII vesicle budding assay with permeabilized CHO (T-Rex-CHO-K1) cells; format: biochemical, H. sapiens; settings: 10 mM 4-PBA; corrected for budding yield
T3 construct: Sec23a/Sec24d (full-length protein) for COPII budding assays; His6 (TEV-cleavable) (N); made in house; host or cells: High Five insect cells (Sec23a/24d, Sec13a/31a); E. coli BL21(DE3) (Sar1a); added to digitonin-permeabilized T-Rex-CHO-K1 cells
Experimental: In vitro COPII budding reactions used permeabilized cells prepared from the T-Rex-CHO-K1 parent line and from the clone that expresses mutant LDL receptor. Permeabilization was carried out as described ([Mancias and Goldberg, 2008]) with modifications. Two culture dishes (150 mm) of cells were prepared with cells at no greater than 60% confluence. Cells were washed with 20 ml PBS at 37°C and then trypsinized with 2 ml of Trypsin-EDTA (0.05%, Gibco) for 1 min at 37°C; 100 µl of Soybean Trypsin Inhibitor (2 mg/ml; Sigma) was added to each culture plate. To this was added 5.5 ml ice-cold KHM buffer (110 mM KOAc, 20 mM Hepes pH 7.2, 2 mM magnesium acetate) per plate, and cells were transferred to a 15 ml Falcon tube and pelleted gently (250 g for 3 min at 4°C). The supernatant was aspirated and the cells resuspended in 6 ml ice-cold KHM buffer. To permeabilize the cells, 6 µl digitonin stock solution (40 mg/ml in dimethyl sulfoxide) was added, cells were mixed by inversion and incubated on ice for 5 min. To terminate permeabilization, cells were diluted to 14 ml with KHM buffer and immediately pelleted at 250 g for 3 min at 4°C. […] The protein concentration was measured using protein assay kit (Bio-Rad) with BSA as standard; routinely, the measurement is in the range 4–5 mg/ml. […]

[4] = Cricetulus griseus, CHO, 2 h, read-out: EC50, acquisition of mutant LDL receptor glycosylation (restoration of trafficking), CHO cells expressing G544V-mutant LDL receptor, 2 hr at 37°C

T2 sequence (Q15436 whole entry partner, one chain of several): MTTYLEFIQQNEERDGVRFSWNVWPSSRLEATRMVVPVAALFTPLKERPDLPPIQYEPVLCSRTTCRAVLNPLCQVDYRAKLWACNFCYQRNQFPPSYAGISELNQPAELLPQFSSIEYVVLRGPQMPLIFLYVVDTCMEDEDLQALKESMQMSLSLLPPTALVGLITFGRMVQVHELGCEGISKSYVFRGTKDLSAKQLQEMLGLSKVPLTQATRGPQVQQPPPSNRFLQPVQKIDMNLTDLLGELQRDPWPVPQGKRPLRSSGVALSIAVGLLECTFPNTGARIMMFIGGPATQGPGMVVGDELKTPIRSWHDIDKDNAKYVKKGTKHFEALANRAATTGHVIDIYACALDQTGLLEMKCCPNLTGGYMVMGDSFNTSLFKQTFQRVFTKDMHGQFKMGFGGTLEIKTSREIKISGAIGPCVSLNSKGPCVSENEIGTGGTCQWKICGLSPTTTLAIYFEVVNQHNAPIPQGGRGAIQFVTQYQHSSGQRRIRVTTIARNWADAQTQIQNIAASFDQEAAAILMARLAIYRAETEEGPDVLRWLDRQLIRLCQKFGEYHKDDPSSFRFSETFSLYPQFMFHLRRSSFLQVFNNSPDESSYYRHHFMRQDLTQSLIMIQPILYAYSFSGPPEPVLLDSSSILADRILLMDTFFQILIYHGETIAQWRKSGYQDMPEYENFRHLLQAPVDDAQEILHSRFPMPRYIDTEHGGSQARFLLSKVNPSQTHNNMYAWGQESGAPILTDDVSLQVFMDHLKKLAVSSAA
T2 sequence (O75396 1-195 partner limits assumed, one chain of several): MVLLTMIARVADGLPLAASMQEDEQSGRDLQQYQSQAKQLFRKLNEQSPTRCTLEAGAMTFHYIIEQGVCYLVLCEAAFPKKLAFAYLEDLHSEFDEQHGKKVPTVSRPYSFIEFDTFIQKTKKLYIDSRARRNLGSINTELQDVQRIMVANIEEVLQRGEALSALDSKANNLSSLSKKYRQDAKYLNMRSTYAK
T3 sequence (O94855 whole entry): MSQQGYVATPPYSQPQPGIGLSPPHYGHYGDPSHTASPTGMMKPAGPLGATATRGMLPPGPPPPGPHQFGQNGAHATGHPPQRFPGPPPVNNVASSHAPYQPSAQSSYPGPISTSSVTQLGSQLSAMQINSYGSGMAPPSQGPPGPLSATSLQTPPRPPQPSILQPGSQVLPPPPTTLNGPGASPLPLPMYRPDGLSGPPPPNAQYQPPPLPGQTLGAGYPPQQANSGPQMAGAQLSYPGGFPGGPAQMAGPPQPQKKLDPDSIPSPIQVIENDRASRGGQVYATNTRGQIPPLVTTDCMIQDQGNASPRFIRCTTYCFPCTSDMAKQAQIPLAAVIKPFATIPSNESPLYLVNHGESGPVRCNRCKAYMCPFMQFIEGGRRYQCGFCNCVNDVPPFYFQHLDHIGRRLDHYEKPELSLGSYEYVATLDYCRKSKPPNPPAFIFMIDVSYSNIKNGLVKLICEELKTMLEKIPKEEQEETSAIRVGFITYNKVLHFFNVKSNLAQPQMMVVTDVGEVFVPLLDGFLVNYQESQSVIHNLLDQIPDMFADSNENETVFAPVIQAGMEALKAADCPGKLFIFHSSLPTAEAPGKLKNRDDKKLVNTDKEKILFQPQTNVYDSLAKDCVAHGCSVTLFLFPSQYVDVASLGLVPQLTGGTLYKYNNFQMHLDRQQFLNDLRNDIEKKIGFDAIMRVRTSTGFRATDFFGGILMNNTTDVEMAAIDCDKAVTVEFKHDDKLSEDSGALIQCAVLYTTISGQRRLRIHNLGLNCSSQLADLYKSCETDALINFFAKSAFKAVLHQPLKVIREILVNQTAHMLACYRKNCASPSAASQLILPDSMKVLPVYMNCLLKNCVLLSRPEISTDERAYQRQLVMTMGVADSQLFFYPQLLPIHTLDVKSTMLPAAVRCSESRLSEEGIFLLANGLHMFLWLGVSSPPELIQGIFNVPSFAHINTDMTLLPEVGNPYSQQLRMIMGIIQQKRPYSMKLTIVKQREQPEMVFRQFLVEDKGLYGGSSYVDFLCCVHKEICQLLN
T3 sequence (Q15436 whole entry partner): as the sequence (Q15436 whole entry partner, one chain of several) above

SMILES	IC50 (human Sec24a) [mM]	EC50 [1, 4] [mM]	cell lysis (GAPDH marker) and loss of GRP94 secretion ([2]; 45 mM 4-PBA)	concentration giving maximal secretion of GRP94 ([2]; stressed and unstressed cells) [mM]	binding to Sec24a in crystals (difference Fourier maps / residual electron density) (B site of Sec24a)	fraction of mutant LDL receptor with restored trafficking ([1]; 10 mM 4-PBA applied to cells) [%]	EC50 ([1]; read-out: EC50, acquisition of mutant LDL receptor glycosylation (restoration of trafficking), CHO cells expressing G544V-mutant LDL receptor, 2 hr at 37°C) [mM]	reduction in the packaging rate of p24 proteins and ERGIC-53 into COPII vesicles [3] [%]
O=C(O)CCc1ccccc1 [3-PPA, 3-phenylpropionate]	4.11 ± 0.34	7.48 ± 0.68	–	–	–	–	–	–
O=C(O)CCCc1ccccc1 [4-PBA, 4-phenylbutyrate]	3.66 ± 0.22	6.4	cell lysis is detected	20	clear evidence for binding	≤ 25	6.37 ± 0.5	50
O=C(O)CCCCc1ccccc1 [5-PVA, 5-phenylvalerate]	0.99 ± 0.08	3.36 ± 0.42	–	–	–	–	–	–
O=C(O)CCCc1ccc(O)cc1 [Hydroxy-PBA, 4-(4-hydroxyphenyl)butyrate]	5.04 ± 0.69	10.6 ± 0.4	–	–	–	–	–	–
O=C(O)CCc1ccc(O)cc1 [Hydroxy-PPA, 3-(4-hydroxyphenyl)propionate]	9.22 ± 0.94	21.7 ± 1.03	–	–	–	–	–	–
COc1ccc(CCCC(=O)O)cc1 [Methoxy-PBA, 4-(4-methoxyphenyl)butyrate]	4.14 ± 0.7	8.63 ± 0.98	–	–	–	–	–	–
Cc1ccc(CCCC(=O)O)cc1 [Tolyl-BA, 4-(4-tolyl)butyrate]	1.7 ± 0.16	4.89 ± 0.24	–	–	–	–	–	–
